Data reported in article PMC5059921, “Chalepin: isolated from Ruta angustifolia L. Pers induces mitochondrial mediated apoptosis in lung carcinoma cells” (BMC Complementary and Alternative Medicine, 2016).
≈ marks a conversion by molar mass, not a printed value. Where two headings read alike, the source gives them in different places.

Assays:
A549 cell line = experiment: SRB in vitro cytotoxicity screening; format: cell-based, human; details: Homo sapiens, A549, isolated compounds
Method: (§1) The human cell lines A549 (lung cancer) and Ca Ski (cervical cancer) were cultured as monolayer in RPMI 1640 growth media whereas HCT-116 (colon cancer) and MRC5 (human normal lung fibroblasts) was cultured in McCoy’s 5A and EMEM medium, respectively. All cells were purchased from the […] (ATCC, USA). All the media were supplemented with 10 % v/v foetal bovine serum (FBS), 100 μg/mL penicillin/streptomycin, and 50 μg/mL amphotericin B. The cells were cultured in a 5 % CO2 incubator at 37 °C.
(§2) The monolayer cell culture was detached using accutase and the cell count was adjusted to 2.5 x10^5 -3.0 x10^5 cells/mL using medium containing feotal bovine serum. The cells were then plated into 96 wells with a cell density of 5000-7000 cells/well and then incubated for 24 h to allow adherence of cells to the base of well of the plates. The media was then removed and 200 μl of fresh media containing different concentration of various extracts or isolated compounds were added. Cisplatin was used as the positive control. The plates were incubated for 24, 48 and 72 h at 37 °C and 5 % CO2. The cytotoxicity of the extracts and isolated compounds were screened using the […] (SRB) assay. This assay was first described by Houghton in 2007 [8]. The incubation was halted by gentle addition of 50 μl ice cold 4 % trichloroacetic acid (TCA) to each well and the plates were incubated at 4 °C for 1 h. Then, the supernatant was discarded and the plates were washed with distilled water for 5 times and then air dried. SRB dye, 50 μl, (0.4 % w/v) was added into each well and the treated cells and control were incubated at room temperature for 30 min. The unbound dye was removed by rapid washing four times with 1 % acetic acid. The plates were then air dried and 100 μl of tris base (10 mM unbuffered, pH 10.5) was added and the plates were shaken at 500 rpm for 5 min to solublize the bound SRB stain. The plates were then read with an ELISA reader (Synergy H1 Hybrid) at an absorbance of 492 nm.

[1] = tested on: MRC5 (human normal lung fibroblasts); experiment: SRB in vitro cytotoxicity screening (toxicity to normal cells); format: cell-based; details: Homo sapiens, MRC5, isolated compounds, 72 h, read-out: IC50 in μg/ml (μM) (MRC5) 72 h (converted)
Method: as §1, §2

[2] = tested on: cervical carcinoma (HeLa); design: method as in PMID 17109253; details: arborinine isolated from Ruta graveolens; cited from earlier work
[3] = tested on: breast adenocarcinoma (MCF-7); design: method as in PMID 17109253; details: arborinine isolated from Ruta graveolens; cited from earlier work
[4] = tested on: skin epidermoid carcinoma (A431); design: method as in PMID 17109253; details: arborinine isolated from Ruta graveolens; cited from earlier work
A-549 tumour cell line = details: cited from earlier work
[5] = tested on: hepatitis C virus, hepatoma cell line (Huh7.5); design: method as in PMID 25454460; details: cited from earlier work
washed rabbit platelets = tested on: washed rabbit platelets; design: method as in earlier work; details: cited from earlier work; for % inhibition of platelet aggregation, inducer AA: AA 100 /c109/c77; for % inhibition of platelet aggregation, inducer Col: collagen 10 /c109g/mL
[6] = tested on: Hela: Human cervix epithelioid carcinoma; design: method as in earlier work; details: cited from earlier work
[7] = tested on: DLD (DLD-1): Human colon adenocarcinoma; design: method as in earlier work; details: cited from earlier work
Hepa: Human hepatoma = tested on: Hepa: Human hepatoma; design: method as in earlier work; details: cited from earlier work
[8] = 48 h, value in brackets, read-out: IC50 in μg/ml (μM) (A549) 48 h (converted)
[9] = 48 h, read-out: IC50 in μg/ml (μM) (A549) 48 h (converted)
[10] = 72 h, value in brackets, read-out: IC50 in μg/ml (μM) (A549) 72 h (converted)
[11] = 72 h, read-out: IC50 in μg/ml (μM) (A549) 72 h (converted)

COc1cc2c(c(O)c1OC)c(=O)c1ccccc1n2C [Arborinine, arborinine]
IC50 (A549 cell line; [8]): 97.2 µM | IC50 (A549 cell line; [9]): 27.7 ± 0.26 µg/mL | IC50 (A549 cell line; [10]): 46 µM | IC50 (A549 cell line; [11]): 13.1 ± 0.06 µg/mL | IC50 ([1]; value in brackets): 73 µM | IC50 [1]: 20.8 ± 0.15 µg/mL | IC50 [2]: 1.84 µg/mL (≈ 6.45 µM) | IC50 [3]: 11.74 µg/mL (≈ 41.1 µM) | IC50 [4]: 12.95 µg/mL (≈ 45.4 µM)

C=CC(C)(C)c1cc2cc3c(cc2oc1=O)OC(C(C)(C)OC(C)=O)C3 (centres unmarked) [Rutamarin, rutamarin]
IC50 (A549 cell line; [8]): 158 µM | IC50 (A549 cell line; [9]): 56.3 ± 1.53 µg/mL | IC50 (A549 cell line; [10]): 192 µM | IC50 (A549 cell line; [11]): 68.5 ± 3.06 µg/mL | IC50 ([1]; value in brackets): > 281 µM | IC50 [1]: > 100 µg/mL | IC50 against A549 cell line (A-549 tumour cell line): 1.318 µg/mL (≈ 3.7 µM)

CC(=O)O[C@H]1C(=O)[C@@]2(C)[C@H]([C@H](OC(=O)c3ccccc3)[C@]3(O)C[C@H](OC(=O)[C@H](O)[C@@H](NC(=O)c4ccccc4)c4ccccc4)C(C)=C1C3(C)C)[C@]1(OC(C)=O)CO[C@@H]1C[C@@H]2O [Taxol, reference compound]
IC50 A-549 (A-549 tumour cell line): 16.6 µg/mL (≈ 19.4 µM)

CCCCCCCCCc1cc(=O)c2ccccc2[nH]1 [pseudane IX]
replication of hepatitis C virus [5]: stop the replication

graveolinine [Compound 16]
% inhibition of platelet aggregation, inducer AA (washed rabbit platelets; Conc. 0.2 /c109g/mL): 6.8% | % inhibition of platelet aggregation, inducer AA (washed rabbit platelets; Conc. 0.5 /c109g/mL): 14.9% | % inhibition of platelet aggregation, inducer Col (washed rabbit platelets; Conc. 0.5 /c109g/mL): 5.8% | % inhibition of platelet aggregation, inducer AA (washed rabbit platelets; Conc. 1 /c109g/mL): 26.9% | % inhibition of platelet aggregation, inducer Col (washed rabbit platelets; Conc. 1 /c109g/mL): 19.2% | % inhibition of platelet aggregation, inducer AA (washed rabbit platelets; Conc. 2 /c109g/mL): 38.4% | % inhibition of platelet aggregation, inducer Col (washed rabbit platelets; Conc. 2 /c109g/mL): 25.4% | % inhibition of platelet aggregation, inducer AA (washed rabbit platelets; Conc. 5 /c109g/mL): 71.2% | % inhibition of platelet aggregation, inducer Col (washed rabbit platelets; Conc. 5 /c109g/mL): 33.3% | % inhibition of platelet aggregation, inducer AA (washed rabbit platelets; Conc. 10 /c109g/mL): 73.1% | % inhibition of platelet aggregation, inducer Col (washed rabbit platelets; Conc. 10 /c109g/mL): 49.5% | % inhibition of platelet aggregation, inducer AA (washed rabbit platelets; Conc. 20 /c109g/mL): 77.4% | % inhibition of platelet aggregation, inducer Col (washed rabbit platelets; Conc. 20 /c109g/mL): 72.6% | % inhibition of platelet aggregation, inducer AA (washed rabbit platelets; Conc. 50 /c109g/mL): 100.0% | % inhibition of platelet aggregation, inducer Col (washed rabbit platelets; Conc. 50 /c109g/mL): 81.2% | % inhibition of platelet aggregation, inducer AA (washed rabbit platelets; Conc. 100 /c109g/mL): 100.0% | % inhibition of platelet aggregation, inducer PAF (washed rabbit platelets; Conc. 100 /c109g/mL, PAF 2ng/mL): 34.6% | % inhibition of platelet aggregation, inducer Col (washed rabbit platelets; Conc. 100 /c109g/mL): 100.0% | % inhibition of platelet aggregation, inducer Thr (washed rabbit platelets; Conc. 100 /c109g/mL, thrombin 0.1 U/mL): 9.0% | ED50 Hela [6]: - (“-“: ED50 /c6220 /c109g/mL) | ED50 DLD [7]: - (“-“: ED50 /c6220 /c109g/mL) | ED50 Hepa (Hepa: Human hepatoma): - (“-“: ED50 /c6220 /c109g/mL)

rutamarin [Compound 4]
IC50 A-549 (A-549 tumour cell line): 1318 µg/mL

skimmianine [Compound 7]
% inhibition of platelet aggregation, inducer AA (washed rabbit platelets; Conc. 20 /c109g/mL): 5.4% | % inhibition of platelet aggregation, inducer Col (washed rabbit platelets; Conc. 20 /c109g/mL): 2.5% | % inhibition of platelet aggregation, inducer AA (washed rabbit platelets; Conc. 50 /c109g/mL): 13.1% | % inhibition of platelet aggregation, inducer Col (washed rabbit platelets; Conc. 50 /c109g/mL): 7.8% | % inhibition of platelet aggregation, inducer AA (washed rabbit platelets; Conc. 100 /c109g/mL): 81.5% | % inhibition of platelet aggregation, inducer Col (washed rabbit platelets; Conc. 100 /c109g/mL): 45.9% | ED50 Hela [6]: - (“-“: ED50 /c6220 /c109g/mL) | ED50 DLD [7]: - (“-“: ED50 /c6220 /c109g/mL) | ED50 Hepa (Hepa: Human hepatoma): - (“-“: ED50 /c6220 /c109g/mL)
